ChEMBL document CHEMBL1201862, “PubChem BioAssay data set” (2004)
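Cultured in 96-well plates, cells were exposed to test compound for 48 hours across five concentrations. GI50 is the concentration that inhibits growth by half.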 Calls of active or inactive are those of the source. Rule as the data show it: active = GI50 up to about 1.1 µM and inactive = higher.

Assays:
Test in all cases: DTP human tumour cell line panel, 48 h
786-0 = system: 786-0
A549 = system: A549
ACHN = system: ACHN
BT-549 = system: BT-549
CAKI-1 = system: CAKI-1
CCRF-CEM = system: CCRF-CEM
COLO 205 = system: COLO 205
DU-145 = system: DU-145
EKVX = system: EKVX
HCC 2998 = system: HCC 2998
HCT-116 = system: HCT-116
HCT-15 = system: HCT-15
HL-60 = system: HL-60
HOP-62 = system: HOP-62
HT-29 = system: HT-29
IGROV-1 = system: IGROV-1
K562 = system: K562
M14 = system: M14
MCF7 = system: MCF7
MOLT-4 = system: MOLT-4
Malme-3M = system: Malme-3M
NCI-H226 = system: NCI-H226
NCI-H23 = system: NCI-H23
NCI-H460 = system: NCI-H460
NCI-H522 = system: NCI-H522
NCI/ADR-RES = system: NCI/ADR-RES
OVCAR-3 = system: OVCAR-3
OVCAR-4 = system: OVCAR-4
OVCAR-5 = system: OVCAR-5
OVCAR-8 = system: OVCAR-8
PC-3 = system: PC-3
RPMI-8226 = system: RPMI-8226
RXF 393 = system: RXF 393
SF-268 = system: SF-268
SF-295 = system: SF-295
SF-539 = system: SF-539
SK-MEL-28 = system: SK-MEL-28
SK-MEL-2 = system: SK-MEL-2
SK-MEL-5 = system: SK-MEL-5
SK-OV-3 = system: SK-OV-3
SNB-19 = system: SNB-19
SNB-75 = system: SNB-75
SR = system: SR
SW-620 = system: SW-620
TK-10 = system: TK-10
U-251 = system: U-251
UACC-257 = system: UACC-257
UACC-62 = system: UACC-62
UO-31 = system: UO-31
Hs-578T = system: Hs-578T
KM12 = system: KM12
LOX IMVI = system: LOX IMVI
MDA-MB-231 = system: MDA-MB-231
MDA-MB-435 = system: MDA-MB-435
MDA-N = system: MDA-N
SN12C = system: SN12C
A498 = system: A498
HOP-92 = system: HOP-92
T47D = system: T47D

CC(C)=NN/C=N\C(C#N)=C(/N)C#N
GI50 (786-0): > 100 µM (inactive) | GI50 (A549): > 100 µM (inactive) | GI50 (ACHN): > 100 µM (inactive) | GI50 (BT-549): > 100 µM (inactive) | GI50 (CAKI-1): > 100 µM (inactive) | GI50 (CCRF-CEM): > 100 µM (inactive) | GI50 (COLO 205): > 100 µM (inactive) | GI50 (DU-145): > 100 µM (inactive) | GI50 (EKVX): > 100 µM (inactive) | GI50 (HCC 2998): 0.262 µM (active) | GI50 (HCT-116): 78.9 µM (inactive) | GI50 (HCT-15): > 100 µM | GI50 (HL-60): > 100 µM (inactive) | GI50 (HOP-62): > 100 µM (inactive) | GI50 (HT-29): > 100 µM (inactive) | GI50 (IGROV-1): > 100 µM (inactive) | GI50 (K562): > 100 µM (inactive) | GI50 (M14): > 100 µM (inactive) | GI50 (MCF7): > 100 µM (inactive) | GI50 (MOLT-4): > 100 µM (inactive) | GI50 (Malme-3M): 69.2 µM (inactive) | GI50 (NCI-H226): > 100 µM (inactive) | GI50 (NCI-H23): > 100 µM (inactive) | GI50 (NCI-H460): > 100 µM (inactive) | GI50 (NCI-H522): > 100 µM (inactive) | GI50 (NCI/ADR-RES): > 100 µM (inactive) | GI50 (OVCAR-3): > 100 µM (inactive) | GI50 (OVCAR-4): > 100 µM (inactive) | GI50 (OVCAR-5): > 100 µM (inactive) | GI50 (OVCAR-8): > 100 µM (inactive) | GI50 (PC-3): > 100 µM (inactive) | GI50 (RPMI-8226): > 100 µM (inactive) | GI50 (RXF 393): > 100 µM (inactive) | GI50 (SF-268): > 100 µM (inactive) | GI50 (SF-295): > 100 µM (inactive) | GI50 (SF-539): > 100 µM (inactive) | GI50 (SK-MEL-28): > 100 µM (inactive) | GI50 (SK-MEL-2): > 100 µM (inactive) | GI50 (SK-MEL-5): 25.8 µM (inactive) | GI50 (SK-OV-3): > 100 µM (inactive) | GI50 (SNB-19): > 100 µM (inactive) | GI50 (SNB-75): 0.466 µM (active) | GI50 (SR): > 100 µM (inactive) | GI50 (SW-620): > 100 µM (inactive) | GI50 (TK-10): > 100 µM (inactive) | GI50 (U-251): > 100 µM (inactive) | GI50 (UACC-257): > 100 µM (inactive) | GI50 (UACC-62): > 100 µM (inactive) | GI50 (UO-31): > 100 µM (inactive)

C=CCCC(CCC=C)(C(=O)O)C(=O)O
GI50 (786-0): > 100 µM (inactive) | GI50 (A549): > 100 µM (inactive) | GI50 (ACHN): > 100 µM (inactive) | GI50 (BT-549): > 100 µM (inactive) | GI50 (CCRF-CEM): > 100 µM (inactive) | GI50 (COLO 205): > 100 µM (inactive) | GI50 (DU-145): > 100 µM (inactive) | GI50 (EKVX): > 100 µM (inactive) | GI50 (HCC 2998): > 100 µM (inactive) | GI50 (HCT-116): > 100 µM (inactive) | GI50 (HCT-15): > 100 µM | GI50 (HL-60): > 100 µM (inactive) | GI50 (HOP-62): > 100 µM (inactive) | GI50 (HT-29): > 100 µM (inactive) | GI50 (Hs-578T): > 100 µM (inactive) | GI50 (IGROV-1): > 100 µM (inactive) | GI50 (K562): > 100 µM (inactive) | GI50 (KM12): > 100 µM (inactive) | GI50 (LOX IMVI): > 100 µM (inactive) | GI50 (M14): > 100 µM (inactive) | GI50 (MCF7): > 100 µM (inactive) | GI50 (MDA-MB-231): > 100 µM (inactive) | GI50 (MDA-MB-435): > 100 µM (inactive) | GI50 (MDA-N): > 100 µM (inactive) | GI50 (MOLT-4): > 100 µM (inactive) | GI50 (Malme-3M): > 100 µM (inactive) | GI50 (NCI-H23): > 100 µM (inactive) | GI50 (NCI-H460): > 100 µM (inactive) | GI50 (NCI-H522): > 100 µM (inactive) | GI50 (NCI/ADR-RES): > 100 µM (inactive) | GI50 (OVCAR-3): > 100 µM (inactive) | GI50 (OVCAR-5): > 100 µM (inactive) | GI50 (OVCAR-8): > 100 µM (inactive) | GI50 (PC-3): > 100 µM (inactive) | GI50 (RPMI-8226): > 100 µM (inactive) | GI50 (RXF 393): > 100 µM (inactive) | GI50 (SF-268): > 100 µM (inactive) | GI50 (SF-295): > 100 µM (inactive) | GI50 (SF-539): > 100 µM (inactive) | GI50 (SK-MEL-28): > 100 µM (inactive) | GI50 (SK-MEL-2): > 100 µM (inactive) | GI50 (SK-MEL-5): > 100 µM (inactive) | GI50 (SN12C): > 100 µM (inactive) | GI50 (SNB-19): > 100 µM (inactive) | GI50 (SNB-75): > 100 µM (inactive) | GI50 (SR): > 100 µM (inactive) | GI50 (SW-620): > 100 µM (inactive) | GI50 (TK-10): > 100 µM (inactive) | GI50 (U-251): > 100 µM (inactive) | GI50 (UACC-257): > 100 µM (inactive) | GI50 (UACC-62): > 100 µM (inactive) | GI50 (UO-31): > 100 µM (inactive)

CC1(C)C(O)c2ccccc2OC1N1CCN(C2Oc3ccccc3C(O)C2(C)C)CC1 (stereo not drawn)
GI50 (786-0): > 100 µM (inactive) | GI50 (A498): 30 µM (inactive) | GI50 (A549): > 100 µM (inactive) | GI50 (ACHN): > 100 µM (inactive) | GI50 (CAKI-1): > 100 µM (inactive) | GI50 (CCRF-CEM): > 100 µM (inactive) | GI50 (COLO 205): > 100 µM (inactive) | GI50 (DU-145): > 100 µM (inactive) | GI50 (EKVX): > 100 µM (inactive) | GI50 (HCC 2998): > 100 µM (inactive) | GI50 (HCT-116): > 100 µM (inactive) | GI50 (HCT-15): > 100 µM | GI50 (HL-60): > 100 µM (inactive) | GI50 (HOP-62): > 100 µM (inactive) | GI50 (HOP-92): > 100 µM (inactive) | GI50 (HT-29): > 100 µM (inactive) | GI50 (Hs-578T): > 100 µM (inactive) | GI50 (IGROV-1): > 100 µM (inactive) | GI50 (K562): > 100 µM (inactive) | GI50 (KM12): > 100 µM (inactive) | GI50 (LOX IMVI): > 100 µM (inactive) | GI50 (M14): > 100 µM (inactive) | GI50 (MCF7): > 100 µM (inactive) | GI50 (MDA-MB-231): > 100 µM (inactive) | GI50 (MDA-MB-435): > 100 µM (inactive) | GI50 (MDA-N): > 100 µM (inactive) | GI50 (MOLT-4): > 100 µM (inactive) | GI50 (Malme-3M): > 100 µM (inactive) | GI50 (NCI-H226): > 100 µM (inactive) | GI50 (NCI-H23): > 100 µM (inactive) | GI50 (NCI-H460): > 100 µM (inactive) | GI50 (NCI-H522): > 100 µM (inactive) | GI50 (NCI/ADR-RES): > 100 µM (inactive) | GI50 (OVCAR-3): > 100 µM (inactive) | GI50 (OVCAR-4): > 100 µM (inactive) | GI50 (OVCAR-5): > 100 µM (inactive) | GI50 (OVCAR-8): > 100 µM (inactive) | GI50 (PC-3): > 100 µM (inactive) | GI50 (RPMI-8226): > 100 µM (inactive) | GI50 (RXF 393): > 100 µM (inactive) | GI50 (SF-268): > 100 µM (inactive) | GI50 (SF-295): > 100 µM (inactive) | GI50 (SF-539): > 100 µM (inactive) | GI50 (SK-MEL-28): > 100 µM (inactive) | GI50 (SK-MEL-5): > 100 µM (inactive) | GI50 (SK-OV-3): > 100 µM (inactive) | GI50 (SN12C): > 100 µM (inactive) | GI50 (SNB-19): > 100 µM (inactive) | GI50 (SNB-75): > 100 µM (inactive) | GI50 (SR): > 100 µM (inactive) | GI50 (SW-620): > 100 µM (inactive) | GI50 (T47D): > 100 µM (inactive) | GI50 (TK-10): > 10 µM (inactive) | GI50 (U-251): > 100 µM (inactive) | GI50 (UACC-257): > 100 µM (inactive) | GI50 (UACC-62): > 100 µM (inactive) | GI50 (UO-31): > 100 µM (inactive)
